Data from patent US20230150921A1, “PHENOLIC ACID LIPID BASED CATIONIC LIPIDS” (Translate Bio, Inc., priority 2020, published 2023).

Assay: Characterisation of lipid nanoparticle formulations (size, PDI, mRNA encapsulation)
Assay type: physicochemical
Details: lipid nanoparticle with FFL mRNA; Process A; Cationic Lipid:DMG-PEG2000:Cholesterol:DOPE 40:5:25:30 mol%; N/P 4
Procedure: One exemplary process for lipid nanoparticle formulation is Process A of WO 2018/089801 (see, e.g., Example 1 and FIG. 1 of WO 2018/089801). Process A (“A”) relates to a conventional method of encapsulating mRNA by mixing mRNA with a mixture of lipids, without first pre-forming the lipids into lipid nanoparticles. In an exemplary process, an ethanol lipid solution and an aqueous buffered solution of mRNA were prepared separately. A solution of mixture of lipids (cationic lipid, helper lipids, zwitterionic lipids, PEG lipids etc.) was prepared by dissolving lipids in ethanol. The mRNA solution was prepared by dissolving the mRNA in citrate buffer. The mixtures were then both heated to 65° C. prior to mixing. Then, these two solutions were mixed using a pump system. In some instances, the two solutions were mixed using a gear pump system. In certain embodiments, the two solutions were mixing using a ‘T’ junction (or “Y” junction). The mixture was then purified by diafiltration with a TFF process. The resultant formulation concentrated and stored at 2-8° C. until further use. A second exemplary process for lipid nanoparticle formulation is Process B of WO 2018/089801 (see, e.g., Example 2 and the FIGURE of WO 2018/089801). Process B (“B”) refers to a process of encapsulating messenger RNA (mRNA) by mixing pre-formed lipid nanoparticles with mRNA. A range of different conditions, such as varying temperatures (i.e., heating or not heating the mixture), buffers, and concentrations, may be employed in Process B. In an exemplary process, lipids dissolved in ethanol and citrate buffer were mixed using a pump system. […] The resultant formulation mixture was empty lipid nanoparticles in citrate buffer containing alcohol. The formulation was then subjected to a TFF purification process wherein buffer exchange occurred. The resulting suspension of pre-formed empty lipid nanoparticles was then mixed with mRNA using a pump system. […] The lipid nanoparticle formulations of Table 5 were prepared by either Process A or B. Each formulation comprised mRNA encoding firefly luciferase protein (FFL mRNA) and lipids (Cationic Lipid: DMG-PEG2000; Cholesterol: DOPE) in the mol % ratios set forth in Table 5.

SMILES | Encapsulation % [%] | PDI | Size (nm)
CCCCCCCCCCCCC(O)CN(CCCC(=O)Oc1c(OC)cc(C(=O)OCCCN(C)C)cc1OC)CC(O)CCCCCCCCCCCC (stereo not drawn) [Compound 5] | 97 | 0.249 | 48.4
CCCCCCCCCCC(O)CN(CCCCC(=O)Oc1c(OC)cc(/C=C/C(=O)OCCCN(C)C)cc1OC)CC(O)CCCCCCCCCC (stereo not drawn) [Compound 10] | 94 | 0.213 | 43.3
CCCCCCCCC(O)CN(CCCC(=O)Oc1c(OC)cc(C(=O)OCCCN(C)C)cc1OC)CC(O)CCCCCCCC (stereo not drawn) [Compound 1] | 94 | 0.235 | 47.6
CCCCCCCCC(O)CN(CCCCC(=O)Oc1c(OC)cc(C(=O)OCCCN(C)C)cc1OC)CC(O)CCCCCCCC (stereo not drawn) [Compound 9] | 79 | 0.213 | 42.3
CCCCCCC/C=C\C/C=C\CCCCC(O)CN(CCCC(=O)Oc1c(OC)cc(C(=O)OCCCN(C)C)cc1OC)CC(O)CCCC/C=C\C/C=C\CCCCCCC (stereo not drawn) [Compound 7] | 95 | 0.429 | 64.2
CCCCCCCCCCCCC(O)CN(CCCCC(=O)Oc1c(OC)cc(C(=O)OCCCN(C)C)cc1OC)CC(O)CCCCCCCCCCCC (stereo not drawn) [Compound 6] | 73 | 0.208 | 47.0
CCCCCCCCCCC(O)CN(CCCCC(=O)Oc1c(OC)cc(C(=O)OCCCN(C)C)cc1OC)CC(O)CCCCCCCCCC (stereo not drawn) [Compound 4] | 91 | 0.198 | 41.4
CCCCCCCCCCCCC(O)CN(CCCCC(=O)Oc1c(OC)cc(/C=C/C(=O)OCCCN(C)C)cc1OC)CC(O)CCCCCCCCCCCC (stereo not drawn) [Compound 11] | 98 | 0.214 | 44.0
CCCCCCCCC(O)CN(CCCCC(=O)Oc1c(OC)cc(C(=O)OCCCN(C)C)cc1OC)CC(O)CCCCCCCC (stereo not drawn) [Compound 3] | 89 | 0.207 | 40.3
CCCCCCCCCCC(O)CN(CCCC(=O)Oc1c(OC)cc(/C=C/C(=O)OCCCN(C)C)cc1OC)CC(O)CCCCCCCCCC (stereo not drawn) [Compound 8] | 95 | 0.193 | 43.3
CCCCCCCCCCC(O)CN(CCCC(=O)Oc1ccc(C(=O)OCCCN(C)C)cc1CC)CC(O)CCCCCCCCCC (stereo not drawn) [Compound 12] | 96 | 0.173 | 65.1
CCCCCCCCCCC(O)CN(CCCC(=O)Oc1c(OC)cc(C(=O)OCCCN(C)C)cc1OC)CC(O)CCCCCCCCCC (stereo not drawn) [Compound 2] | 94 | 0.251 | 48.9
